Measured values as given in publication PMC12135943, “Beyond Barriers, Big Crystallization Hurdles: Atropisomerism in Beyond Rule of Five Compounds Explored by Computational and NMR Studies” (Molecular Pharmaceutics, 2025).
Converted amounts (≈) assume the structure as drawn. Read-outs that look alike come from different tables or passages of the source.

What was measured:
Assay type in all cases: physicochemical
[1] = Approximate solvent solubility (ASS); conditions: for solubility: organic solvents and solvent systems, 40 °C, organic solvent or mixture, thermodynamic from solid, stirring at 40 °C
Protocol: The approximate solubility of both compounds was determined in various organic solvents and solvent systems with a range of properties, including protic, aprotic, polar, and nonpolar solvents. Solubility tests were conducted under stirring at 40 °C, with concentrations ranging from 400 to 5 mg/mL. Solvents in which the solubility was below 5 mg/mL were classified as antisolvents. […]
Experimental procedures ACBI1:
Approximate solvent solubility (ASS):
Approximately 20.00 mg were weighed in HPLC vials, and a magnetic stirrer bar was inserted. Water bath temperature was set at 40 °C, and the initial 25 μL of the appropriate solvent was added into the vial. Stirring was initiated and the slurries were brought up to the desired set temperature. Observations were recorded and the next addition was performed according to the Table S1. The samples were stirred at 40 °C overnight, cooled down to ambient conditions and observations were recorded after 24 h.

[2] = Variable temperature NMR rotational barrier calculation (modified Eyring equation); conditions: for rotational energy barrier size: conclusion of NMR experiments
Protocol: This equation allows quick evaluation of the rotational energy barrier as follows: ΔG^‡=RTcoal[22.96+ln(Tcoal/δν)] where R is the universal gas constant [J/mol·K], T coal is the coalescence temperature [K], and δν is the difference of the Larmor frequencies in [Hz] for the two observed signals for the rotameric pair. The energy calculated using this equation is given in J/mol, which is then converted into kcal/mol.
^1H NMR spectra were recorded in a suitable deuterated solvent using a Bruker Avance IIIHD NMR spectrometer with a working base frequency of 400 MHz, equipped with a helium cryogenically cooled ^1H/^13C /^15N TCI probehead. The temperature limits of the probehead are from −40 °C up to 150 °C. The ^1H NMR experiments are recorded at a proton resonance frequency of 400.13 MHz, and 100.61 MHz was used for the ^13C frequency. The temperature is regulated using a Bruker Smart Variable temperature unit and calibrated using NMR-thermometer sample calibration. The assignment of the proton and carbon signals is performed using ^1H and ^13C NMR experiments, such as 1D ^1H, 1D ^13C, and 2D experiments: ^1H–^1H COSY, ^1H–^1H ROESY, ^1H–^13C HSQC, and ^1H–^13C HMBC. The chemical shifts (δH and δC) are reported in parts per million referenced to the 0.01% of nondeuterated signal of the deuterated solvent in the proton-based experiments and to the signal of the fully deuterated solvent signal in the carbon dimensions.
The evaluation of the energy barrier for the single bond rotation by experiment serves as key information for the crystallization properties of the bRo5-like molecules. Single one-dimensional proton measurements at various temperatures in 10 K steps allow the assessment of the coalescence temperature and the calculation of the rotational barrier energy, as described below. Both model compounds, ACBI1 and BI201335, show a clearly observable doubled signal set for some of the signals in the NMR spectra at 303 K. This could be attributed to presence of rotamers and/or diastereoisomers, as shown in Figure and Figure for ACBI1 and Figure and Figure for BI201335. The discernment of whether the multiple of signal sets is observed due to a slow convergence between two or more forms or the presence of diastereoisomers is most easily accessed by performing a two-dimensional proton ROESY experiment. […] At this temperature, the exchange between the proton signals could be clearly observed by the presence of cross peaks with the same phase as the diagonal peaks. The Nuclear Overhauser Enhancement (NOE) proximity cross peaks for small molecules have an antidiagonal phase. This serves as proof for the presence of rotamers with rotational barrier that could not be overcome at 303 K and therefore no exchange cross peaks are measured. […] In contrast to the ACBI1, in the ROESY spectrum at 303 K for BI201335 the exchange cross peaks are measurable.
The variable temperature NMR experiments were performed in the temperature range from 303 to 393 K with a 10 K step in between the experiments. In the case of BI201335 there are two rotameric signal pairs for which an attempt to calculate the rotational barrier could be performed. […] An estimation of the potential rotational barrier nevertheless allows an approximation within a range of energy barriers to be calculated: if the coalescence temperature was 393 K, the rotational barrier for this signal pair would be 18.8 kcal/mol. […] At the last measured point of 393 K (clearly below the experimental coalescence temperature), the rotational barrier would be 19.4 kcal/mol. At 423 K the calculated energy barrier would be 20.9 kcal/mol, and at 453 K it would be 22.4 kcal/mol. Based on the lack of exchange signals in the ROESY spectra at lower temperatures and the shape of the signals at 393 K, a coalescence temperature around 450 K seems most plausible. Thus, the rotational barrier for ACBI1 is estimated as 22.4 kcal/mol, with an error range of about 1–1.5 kcal/mol.

[3] = Dynamical vapor sorption (DVS); conditions: crystalline solvent-free form; 0-90% RH
Protocol: Dynamical vapor sorption data were recorded on a DVS intrinsic system from surface measurement systems (SMS) under a N2 atmosphere. Water sorption/desorption isotherms were recorded from 0% to 90% RH followed by an additional run from 90% to 0% RH in equal steps of 10% RH.

[4] = solvents in which the compound was soluble, read-out: approximate solubility in organic solvents

Row | solubility [1, 4] | rotational energy barrier size [2] | coalescence temperature ([2]; signal pair 4.46 and 4.76 ppm at 303 K) | rotational barrier ([2]; signal pair 4.46 and 4.76 ppm, coalescence temperature 393 K) | rotational energy barrier ([2]; signal pair 4.62 and 4.95 ppm, estimated coalescence temperature 403 K) | rotational barrier ([2]; signal pair 4.62 and 4.95 ppm, if the coalescence temperature was 393 K (not reached)) | coalescence temperature (estimated) ([2]; signal pair 4.62 and 4.95 ppm, not converged at 393 K) | hygroscopicity (DVS isotherm plot) [3] | hydrophobicity ([1]; from solvent solubility test (Table S1)) | solubility ([1]; a few solvents classified as potential antisolvents, read-out: approximate solubility in antisolvents) | rotational barrier ([2]; calculated for 393 K, clearly below the coalescence temperature) | calculated energy barrier ([2]; calculated for 423 K) | calculated energy barrier ([2]; calculated for 453 K) | rotational barrier (estimated) ([2]; error range of about 1–1.5 kcal/mol) | coalescence temperature (most plausible) ([2]; not reached at 393 K, estimated from signal shape and ROESY) | SMILES
1 | 75 to 400 mg/mL (≈ 86.2 to 460 mM) | below 20 kcal/mol | 393 K | 18.9 kcal/mol | 19.3 kcal/mol | 18.8 kcal/mol | around 403 K | slight hygroscopicity | – | – | – | – | – | – | – | C=C[C@@H]1C[C@]1(NC(=O)[C@@H]1C[C@@H](Oc2cc(-c3csc(NC(=O)C(C)C)n3)nc3c(Br)c(OC)ccc23)CN1C(=O)[C@@H](NC(=O)OC1CCCC1)C(C)(C)C)C(=O)O [BI201335]
2 | 50 to 400 mg/mL (≈ 53.4 to 427 mM) | above 20 kcal/mol | – | – | – | – | – | – | hydrophobic | < 5 mg/mL | 19.4 kcal/mol | 20.9 kcal/mol | 22.4 kcal/mol | 22.4 kcal/mol | around 450 K | Cc1ncsc1-c1ccc(CNC(=O)C2CC(O)CN2C(=O)C(NC(=O)C2(F)CC2)C(C)(C)C)c(OCCOc2ccc(CN3CCN(c4cc(-c5ccccc5O)nnc4N)CC3)cc2)c1 (centres unmarked) [ACBI1]
